The record followed here is the supplement of paper PMC10307832.

What all share (assay): relative viability (nuclei count vs DMSO), 5 days (fraction); higher = more cells survive
Compound in the experiment “Motesanib + Foretinib”: CC1(C)CNc2cc(NC(=O)c3cccnc3NCc3ccncc3)ccc21 [Motesanib] + COc1cc2c(Oc3ccc(NC(=O)C4(C(=O)Nc5ccc(F)cc5)CC4)cc3F)ccnc2cc1OCCCN1CCOCC1 [Foretinib] (partner 0.25 µM)
The gist of the method:
(§1)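 Lung cancer cell lines, seeded in 1536-well plates, were treated the following day by pin tool with a single drug or with five library-drug doses (not always all listed) in √10 steps on top of a fixed anchor-drug dose. Cells were fixed and nuclei stained in one step after 5 days, and nuclei were counted. Relative viability is the nuclei count for treated wells divided by that for vehicle wells, reported as medians of duplicate plates.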

Compound in the experiment “Motesanib + Pictilisib”: CC1(C)CNc2cc(NC(=O)c3cccnc3NCc3ccncc3)ccc21 [Motesanib] + CS(=O)(=O)N1CCN(Cc2cc3nc(-c4cccc5[nH]ncc45)nc(N4CCOCC4)c3s2)CC1 [Pictilisib] (partner 1 µM)
The procedure, abridged: as §1

Compound in experiment [1]: C[C@@]1(C(=O)Nc2ccc(F)nc2)CCCN1c1nc(Nc2cc(C3CC3)n[nH]2)c2cccn2n1 + Cc1cc(Nc2cc(N3CCN(C)CC3)nc(Sc3ccc(NC(=O)C4CC4)cc3)n2)n[nH]1 [Tozasertib] (partner 0.1 µM)
The gist of the method:
as §1

Compound in experiment [2]: C[C@@]1(C(=O)Nc2ccc(F)nc2)CCCN1c1nc(Nc2cc(C3CC3)n[nH]2)c2cccn2n1 + O=C(c1cc(Cc2n[nH]c(=O)c3ccccc23)ccc1F)N1CCN(C(=O)C2CC2)CC1 [Olaparib] (partner 8 µM)
The gist of the method:
as §1

Turning to NCI-H2170, the relative viability in the experiment with Motesanib + Foretinib (first compound 0.01 µM) was 1.01; with Motesanib + Foretinib (first compound 0.03162 µM), 1.03; with Motesanib + Foretinib (first compound 0.1 µM), 0.955; with Motesanib + Foretinib (first compound 0.3162 µM), 0.952; with Motesanib + Foretinib (first compound 1 µM), 0.982; with Motesanib + Pictilisib (first compound 0.01 µM), 0.278. Besides, the relative viability with Motesanib + Pictilisib (first compound 0.03162 µM) stood at 0.347; in the experiment with Motesanib + Pictilisib (first compound 0.1 µM), 0.294; in the experiment with Motesanib + Pictilisib (first compound 0.3162 µM), 0.331; with Motesanib + Pictilisib (first compound 1 µM), 0.344; in experiment [1] (first compound 0.04 µM), 0.671; in experiment [1] (first compound 0.1265 µM) it was 0.791. Further, the relative viability in experiment [1] (first compound 0.4 µM) stood at 0.636; in experiment [1] (first compound 1.265 µM), 0.559; in experiment [2] (first compound 0.04 µM), 0.568; in experiment [2] (first compound 0.1265 µM) it was 0.556; in experiment [2] (first compound 0.4 µM) it was 0.488; in experiment [2] (first compound 1.265 µM), 0.601.
As for NCI-H1395, the relative viability in the experiment with Motesanib + Foretinib (first compound 0.01 µM) was found to be 0.973; with Motesanib + Foretinib (first compound 0.03162 µM), 0.809; in the experiment with Motesanib + Foretinib (first compound 0.1 µM) it was 1.05; in the experiment with Motesanib + Foretinib (first compound 0.3162 µM), 1.02; with Motesanib + Foretinib (first compound 1 µM) it was 0.942; with Motesanib + Pictilisib (first compound 0.01 µM), 0.61. For the same cell line, the relative viability is 0.566 with Motesanib + Pictilisib (first compound 0.03162 µM); 0.609 in the experiment with Motesanib + Pictilisib (first compound 0.1 µM); 0.646 with Motesanib + Pictilisib (first compound 0.3162 µM); 0.703 in the experiment with Motesanib + Pictilisib (first compound 1 µM); 0.783 in experiment [1] (first compound 0.04 µM); 0.741 in experiment [1] (first compound 0.1265 µM). In addition, the relative viability came out at 0.74 in experiment [1] (first compound 0.4 µM); 0.61 in experiment [1] (first compound 1.265 µM); 0.505 in experiment [2] (first compound 0.04 µM); 0.437 in experiment [2] (first compound 0.1265 µM); 0.408 in experiment [2] (first compound 0.4 µM); 0.497 in experiment [2] (first compound 1.265 µM).
For NCI-H358, the relative viability amounted to 0.599 with Motesanib + Foretinib (first compound 0.01 µM); 0.712 with Motesanib + Foretinib (first compound 0.03162 µM); 0.67 with Motesanib + Foretinib (first compound 0.1 µM); 0.807 in the experiment with Motesanib + Foretinib (first compound 0.3162 µM); 0.629 with Motesanib + Foretinib (first compound 1 µM); 0.303 in the experiment with Motesanib + Pictilisib (first compound 0.01 µM). Besides, the relative viability with Motesanib + Pictilisib (first compound 0.03162 µM) worked out at 0.336; with Motesanib + Pictilisib (first compound 0.1 µM), 0.351; with Motesanib + Pictilisib (first compound 0.3162 µM), 0.435; in the experiment with Motesanib + Pictilisib (first compound 1 µM), 0.338; in experiment [1] (first compound 0.04 µM), 0.0856; in experiment [1] (first compound 0.1265 µM) it was 0.0931. In addition, the relative viability in experiment [1] (first compound 0.4 µM) worked out at 0.0786; in experiment [1] (first compound 1.265 µM) it was 0.0689; in experiment [2] (first compound 0.04 µM), 0.477; in experiment [2] (first compound 0.1265 µM), 0.311; in experiment [2] (first compound 0.4 µM), 0.183; in experiment [2] (first compound 1.265 µM), 0.233.
Consider NCI-H838, for which the relative viability with Motesanib + Foretinib (first compound 0.01 µM) was found to be 1.17; with Motesanib + Foretinib (first compound 0.03162 µM), 1.06; in the experiment with Motesanib + Foretinib (first compound 0.1 µM) it was 1.07; with Motesanib + Foretinib (first compound 0.3162 µM) it was 1.14; in the experiment with Motesanib + Foretinib (first compound 1 µM) it was 1.09; in the experiment with Motesanib + Pictilisib (first compound 0.01 µM), 0.496. Further, the relative viability with Motesanib + Pictilisib (first compound 0.03162 µM) is 0.441; in the experiment with Motesanib + Pictilisib (first compound 0.1 µM), 0.462; in the experiment with Motesanib + Pictilisib (first compound 0.3162 µM), 0.449; with Motesanib + Pictilisib (first compound 1 µM) it was 0.508; in experiment [1] (first compound 0.04 µM), 0.249; in experiment [1] (first compound 0.1265 µM), 0.221. Moreover, the relative viability in experiment [1] (first compound 0.4 µM) is 0.166; in experiment [1] (first compound 1.265 µM), 0.259; in experiment [2] (first compound 0.04 µM) it was 0.726; in experiment [2] (first compound 0.1265 µM), 0.636; in experiment [2] (first compound 0.4 µM) it was 0.555; in experiment [2] (first compound 1.265 µM) it was 0.388.
For CAL-12T, the relative viability came out at 1.13 with Motesanib + Foretinib (first compound 0.01 µM); 1.19 with Motesanib + Foretinib (first compound 0.03162 µM); 1.2 with Motesanib + Foretinib (first compound 0.1 µM); 1.19 in the experiment with Motesanib + Foretinib (first compound 0.3162 µM); 1.12 with Motesanib + Foretinib (first compound 1 µM); 0.358 with Motesanib + Pictilisib (first compound 0.1 µM). In addition, the relative viability with Motesanib + Pictilisib (first compound 0.3162 µM) amounted to 0.403; with Motesanib + Pictilisib (first compound 1 µM), 0.434; in experiment [1] (first compound 0.04 µM), 0.249; in experiment [1] (first compound 0.1265 µM) it was 0.27; in experiment [1] (first compound 0.4 µM), 0.275; in experiment [1] (first compound 1.265 µM), 0.189. The relative viability in experiment [2] (first compound 0.04 µM) was found to be 0.729; in experiment [2] (first compound 0.1265 µM), 0.751; in experiment [2] (first compound 0.4 µM) it was 0.583; in experiment [2] (first compound 1.265 µM), 0.449.
